# Measured values reported in US20240299376A1, “METHOD OF TREATING A CONDITION USING A […] EFFECTIVE DOSE OF 1-(1-OXO-1,2-DIHYDROISOQUINOLIN-5-YL)-5-(TRIFLUOROMETHYL)-N-(2-(TRIFLUOROMETHYL)PYRIDIN-4-YL)-1H-PYRAZOLE-4-CARBOXAMIDE” (Janssen Pharmaceutica NV, priority 2021, published 2024).
# Columns and labels:
# [1] = tested on: OCI-LY3 human DLBCL xenografts; test: Antitumor efficacy in established OCI-LY3 human DLBCL xenografts; type: in vivo, NSG mice
# Procedure: The human ABC-DLBCL cell line OCI-LY3 was obtained from Dr. Miguel A Piris, Hospital Universitario Marques de Valdecilla, Santander, Spain. The human ABC-DLBCL cell line OCI-LY-10 was obtained from University Hospital Network, Ontario Cancer Institute. OCY-LY3 cells were maintained at 37° C. in a humidified atmosphere (5% CO2, 95% air), in RPMI-1640 medium with GlutaMAX™, supplemented with 10% Fetal Bovine Serum (Heat Inactivated at 57° C., and 1% Penicillin-Streptomycin). Each mouse received 1×10^6 cells in serum-free RPMI-1640 medium or PBS with Matrigel basement matrix […] in a total volume of 0.2 mL. Cells were implanted SC in the right flank using a 1 ml syringe and a 26-gauge needle. The day of tumor implantation was designated as Day 0.
# Tumor volume was calculated using the formula: tumor volume (mm^3)=(Dxd^2/2); where ‘D’ represents the larger diameter, and ‘d’ the smaller diameter of the tumor as determined by caliper measurements. Tumor volume data was graphically represented as the mean tumor volume±SEM.
# Percent tumor growth inhibition (TGI) was defined as the difference between mean tumor volumes of the treated and control group, calculated as
# where TVc is the mean tumor volume of a given control group and TVt is the mean tumor volume of the treatment group. As defined by National Cancer Institute criteria, ≥60% TGI is considered biologically significant.
# Group tumor volumes are graphed as the mean+/−SEM. Mice were implanted SC on the right flank on Day 0.
# For study 3, animals were randomly assigned into treatment groups, when the OCI-LY3 mean tumor volume was 164 mm^3 (Day 32 post-tumor cell implantation). Treatment was initiated on the day of randomization (Day 32). After 28 days of treatment on Day 60, serum was collected at 2, 4, and 12 hours post last dose for the bid treated groups or 2, 4 and 24 hours post last dose for qd treated groups in cohorts of 5 mice. Blood was collected from the retro-orbital sinus and submitted for bioanalytical analysis.
# [2] = tested on: U2932 (A20/TAK1 mut); test: Anti-proliferative activity, DLBCL cell line panel; type: cell-based; settings: Homo sapiens, U2932, 192 h; antiproliferation after 8 days of treatment
# [3] = tested on: OCI-LY3 cells; test: Whole-gene transcriptomics; type: cell-based, human; settings: OCI-LY3 (Myd88 and CARD11 mutations)
# [4] = Single oral dose plasma PK in fasted dogs; type: in vivo, dog; settings: for bioavailability / AUC(0-inf) / Cmax / Tmax / AUC(0-t) / half-life: beagle, dog, plasma
# Source text: With the suspension formulation the double-peak phenomenon is even more pronounced.
# As observed in rats, dose escalation in dogs resulting in proportional or dose-related exposure with the PEG400 solution was unsuccessful in identifying a vehicle suitable for toxicology studies.
# [5] = Serum concentration after 28 days of oral dosing in male OCI-LY3 tumor-bearing NSG mice; type: in vivo; settings: mouse, mean; for concentration at 0.25 h: 0.25 h post last dose
# [6] = female, po, 100 mg/kg, 2F, 100 mg/kg PO, 100% PEG400 solution, Study 7
# [7] = female, po, 280 mg/kg, 2F, 280 mg/kg PO, 100% PEG400 solution, Study 7
# [8] = male, po, 5 mg/kg, 3M (N = 2 used), 5 mg/kg PO, 100% PEG400 solution, Study 1
# [9] = male, po, 5 mg/kg, 3M, 5 mg/kg PO, 0.5% HPMC suspension, Study 4
# [10] = male, po, 5 mg/kg, 3M, 5 mg/kg PO, -ZAF salt nanosuspension (HPMC:DOSS suspension), Study 5
# [11] = male, po, 20 mg/kg, 3M, 20 mg/kg PO, 0.5% HPMC suspension, Study 2
# [12] = male, po, 20 mg/kg, 3M, 20 mg/kg PO, 0.5% HPMC suspension, Study 4
# [13] = male, po, 20 mg/kg, 3M, 20 mg/kg PO, 100% PEG400 solution, Study 3
# [14] = male, po, 20 mg/kg, 3M, 20 mg/kg PO, -ZAF salt nanosuspension (HPMC:DOSS suspension), Study 5
# [15] = male, po, 22.5 mg/kg, 3M, 22.5 mg/kg PO, PEG400/PVP VA 90:10 solution, Study 6
compound,measurement,setting,value
"O=C(Nc1ccnc(C(F)(F)F)c1)c1cnn(-c2cccc3c(=O)[nH]ccc23)c1C(F)(F)F [Compound A, 1-(1-oxo-1,2-dihydroisoquinolin-5-yl)-5-(trifluoromethyl)-N-[2-(trifluoromethyl)pyridin-4-yl]-1H-pyrazole-4-carboxamide]",TGI,"[1]; 1 mg/kg BID PO, 4 weeks, vs vehicle control",37%
same,TGI (%) at day 28,"[1]; 1 mg/kg, bid (Table 4)",46%
same,TGI,"[1]; 3 mg/kg BID PO, 4 weeks, vs vehicle control",19%
same,TGI (%) at day 28,"[1]; 3 mg/kg, bid (Table 4)",23%
same,TGI,"[1]; 10 mg/kg BID PO, 4 weeks, vs vehicle control",53%
same,mean TGI,"[1]; 10 mg/kg BID, 3 independent OCI-LY3 antitumor efficacy studies",60%
same,TGI,"[1]; 10 mg/kg BID, previous efficacy studies in the OCI-LY3 model",51-76%
same,TGI,"[1]; 10 mg/kg, 8/16 hr split schedule instead of 12/12 hr",57%
same,TGI (%) at day 28,"[1]; 10 mg/kg, bid (Table 4)",66%
same,TGI,"[1]; 30 mg/kg BID PO, 4 weeks, vs vehicle control",72%
same,TGI,"[1]; 30 mg/kg BID, previous efficacy studies in the OCI-LY3 model",60-86%
same,TGI (%) at day 28,"[1]; 30 mg/kg, bid (Table 4)",90%
same,TGI,"[1]; 60 mg/kg QD PO, 4 weeks, vs vehicle control",57%
same,TGI (%) at day 28,"[1]; 60 mg/kg, qd (Table 4)",71%
same,TGI,"[1]; 100 mg/kg BID PO, 4 weeks, vs vehicle control",72%
same,TGI (%) at day 28,"[1]; 100 mg/kg, bid (Table 4)",90%
same,TGI,"[1]; 100 mg/kg, previous efficacy studies in the OCI-LY3 model",62-89%
same,tolerability,"[1]; 1 to 100 mg/kg (BID or QD), OCI-LY3 and OCI-LY10 xenograft models in NSG mice",well tolerated
same,minimum efficacious dose,"[1]; BID, OCI-LY3 model",10 mg/kg
same,IC50,[2],3.9 µM
same,gene expression changes,[3],clear dose-dependent gene expression changes
same,increase of Cmax or AUC with dose,"[4]; Study 7, doses of 100, 280, and 560 mg/kg, PEG400 solution",≤ 25%
same,bioavailability,"[4]; po, 5 mg/kg, 5 mg/kg PO, -ZAF salt nanosuspension (HPMC:DOSS suspension), Study 5",12 to 69%
same,bioavailability,"[4]; po, 20 mg/kg, 20 mg/kg PO, 0.5% HPMC suspension, Study 4",7 to 89%
same,bioavailability,"[4]; po, 20 mg/kg, 20 mg/kg PO, -ZAF salt nanosuspension (HPMC:DOSS suspension), Study 5",6.7%
same,bioavailability,"[4]; po, 22.5 mg/kg, 22.5 mg/kg PO, PEG400/PVP VA 90:10 solution, Study 6",> 100%
same,AUC(0-inf),"[4]; po, 560 mg/kg, 560 mg/kg PO, 100% PEG400 solution, Study 7, N = 1",1760 µg·h/mL
same,AUC(0-inf),[4]; [6],1360 µg·h/mL
same,Cmax,[4]; [6],24.3 µg/mL
same,Tmax,[4]; [6],15.5 h
same,AUC(0-t),"[4]; female, po, 100 mg/kg, 2F, 100 mg/kg PO, 100% PEG400 solution, Study 7, Tlast = 96 hours",1250 µg·h/mL
same,AUC(0-inf),[4]; [7],1680 µg·h/mL
same,Cmax,[4]; [7],30.6 µg/mL
same,AUC(0-t),"[4]; female, po, 280 mg/kg, 2F, 280 mg/kg PO, 100% PEG400 solution, Study 7, Tlast = 96 hours",1510 µg·h/mL
same,Tmax,"[4]; female, po, 280 mg/kg, 2F, 280 mg/kg PO, 100% PEG400 solution, Study 7, median",24 h
same,Cmax,"[4]; female, po, 280 mg/kg, 2F, 280 mg/kg PO, PEG400/PVP VA 90:10 solution, Study 7",106 µg/mL
same,AUC(0-t),"[4]; female, po, 280 mg/kg, 2F, 280 mg/kg PO, PEG400/PVP VA 90:10 solution, Study 7, Tlast = 96 hours",1970 µg·h/mL
same,Tmax,"[4]; female, po, 280 mg/kg, 2F, 280 mg/kg PO, PEG400/PVP VA 90:10 solution, Study 7, median",24 h
same,Cmax,"[4]; female, po, 480 mg/kg, 2F, 480 mg/kg PO, PEG400/PVP VA 90:10 solution, Study 7",76.6 µg/mL
same,AUC(0-t),"[4]; female, po, 480 mg/kg, 2F, 480 mg/kg PO, PEG400/PVP VA 90:10 solution, Study 7, Tlast = 96 hours",1510 µg·h/mL
same,Tmax,"[4]; female, po, 480 mg/kg, 2F, 480 mg/kg PO, PEG400/PVP VA 90:10 solution, Study 7, median",27.5 h
same,Cmax,"[4]; female, po, 560 mg/kg, 2F, 560 mg/kg PO, 100% PEG400 solution, Study 7",31.8 µg/mL
same,AUC(0-t),"[4]; female, po, 560 mg/kg, 2F, 560 mg/kg PO, 100% PEG400 solution, Study 7, Tlast = 96 hours",2010 µg·h/mL
same,Tmax,"[4]; female, po, 560 mg/kg, 2F, 560 mg/kg PO, 100% PEG400 solution, Study 7, median",24 h
same,increase in Cmax and AUC,"[4]; from 22.5 to 280 mg/kg, PVP VA in PEG400 solution",approximately 5 fold
same,bioavailability,"[4]; male, oral, 5 mg/kg, 5 mg/kg PO, 100% PEG400 solution, Study 1, calculated using the IV data from Study 1",> 100%
same,bioavailability,"[4]; male, po, 5 mg/kg, 5 mg/kg PO, 0.5% HPMC suspension, Study 4",14 to 66%
same,AUC(0-inf),[4]; [8],146 µg·h/mL
same,Cmax,[4]; [8],6.15 µg/mL
same,Tmax,[4]; [8],2 h
same,half-life,[4]; [8],17.3 h
same,AUC(0-t),"[4]; male, po, 5 mg/kg, 3M (N = 2 used), 5 mg/kg PO, 100% PEG400 solution, Study 1, Tlast = 48 hours",143 µg·h/mL
same,AUC(0-inf),[4]; [9],30.7 µg·h/mL
same,AUC(0-t),[4]; [9],43.7 µg·h/mL
same,Cmax,[4]; [9],2.03 µg/mL
same,Tmax,[4]; [9],9 h
same,half-life,[4]; [9],21.8 h
same,AUC(0-inf),[4]; [10],26.4 µg·h/mL
same,AUC(0-t),[4]; [10],43.7 µg·h/mL
same,Cmax,[4]; [10],1.45 µg/mL
same,Tmax,[4]; [10],9.33 h
same,half-life,[4]; [10],11.5 h
same,AUC(0-inf),"[4]; male, po, 20 mg/kg, 20 mg/kg PO, 0.5% HPMC suspension, Study 2, N = 1 animal with low exposure",15.6 µg·h/mL
same,bioavailability,"[4]; male, po, 20 mg/kg, 20 mg/kg PO, 100% PEG400 solution, Study 3",33 to 72%
same,Cmax,[4]; [11],4.01 µg/mL
same,Tmax,[4]; [11],16.7 h
same,half-life,[4]; [11],17.8 h
same,AUC(0-t),"[4]; male, po, 20 mg/kg, 3M, 20 mg/kg PO, 0.5% HPMC suspension, Study 2, Tlast = 72 hours",153 µg·h/mL
same,AUC(0-inf),[4]; [12],31.8 µg·h/mL
same,AUC(0-t),[4]; [12],160 µg·h/mL
same,Cmax,[4]; [12],4.08 µg/mL
same,Tmax,[4]; [12],16.7 h
same,half-life,[4]; [12],14.3 h
same,AUC(0-inf),[4]; [13],224 µg·h/mL
same,Cmax,[4]; [13],5.77 µg/mL
same,Tmax,[4]; [13],8.33 h
same,half-life,[4]; [13],18.6 h
same,AUC(0-t),"[4]; male, po, 20 mg/kg, 3M, 20 mg/kg PO, 100% PEG400 solution, Study 3, Tlast = 96 hours",215 µg·h/mL
same,AUC(0-inf),[4]; [14],87 µg·h/mL
same,AUC(0-t),[4]; [14],111 µg·h/mL
same,Cmax,[4]; [14],3.51 µg/mL
same,Tmax,[4]; [14],9 h
same,half-life,[4]; [14],16.6 h
same,AUC(0-inf),[4]; [15],757 µg·h/mL
same,Cmax,[4]; [15],21 µg/mL
same,Tmax,[4]; [15],1.25 h
same,half-life,[4]; [15],14.1 h
same,AUC(0-t),"[4]; male, po, 22.5 mg/kg, 3M, 22.5 mg/kg PO, PEG400/PVP VA 90:10 solution, Study 6, Tlast = 96 hours",741 µg·h/mL
same,concentration at 0.25 h,[5]; 1 mg/kg BID PO 28 days,0.323 µg/mL
same,concentration at 0.25 h,[5]; 60 mg/kg QD PO 28 days,6.99 µg/mL
same,concentration at 8 h,"[5]; 60 mg/kg QD PO 28 days, 8 h post last dose",10.6 µg/mL
